We go through 3 compounds from patent US7888383B2, “Organic compounds” (Novartis AG, priority 2005, dated 2011).

The target of one assay is T1, human CRTh2 (Homo sapiens, UniProt Q9Y5Y4).
T1 construct: expressed in transfected cells; host or cells: CHO.K1 (Chinese Hamster Ovary) cells expressing human CRTh2; membrane preparation
T1 sequence (Q9Y5Y4 1-395): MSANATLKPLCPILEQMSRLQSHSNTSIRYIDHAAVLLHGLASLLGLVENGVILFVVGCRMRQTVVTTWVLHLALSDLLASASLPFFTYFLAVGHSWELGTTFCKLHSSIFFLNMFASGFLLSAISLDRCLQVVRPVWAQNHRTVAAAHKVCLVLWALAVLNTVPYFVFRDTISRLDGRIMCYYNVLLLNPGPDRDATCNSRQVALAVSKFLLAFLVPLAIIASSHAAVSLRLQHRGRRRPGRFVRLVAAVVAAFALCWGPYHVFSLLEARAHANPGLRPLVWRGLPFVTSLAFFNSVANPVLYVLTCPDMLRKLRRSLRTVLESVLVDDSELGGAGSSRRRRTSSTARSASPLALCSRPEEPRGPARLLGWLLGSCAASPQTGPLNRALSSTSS
Description: CRTh2 [3H]-PGD2 binding assay (filtration protocol; called SPA binding assay). Particulars: competition with [3H]-PGD2 (2.5 nM), CHO.K1-CRTh2 membranes. The procedure: Filtration Binding Assay Protocol
The binding of CRTh2 modulators is determined using membranes prepared from human CRTh2-expressing Chinese Hamster Ovary cells (CHO.K1-CRTh2). To produce cell membranes CHO.K1-CRTh2 cells cultured in roller bottles are harvested using cell dissociation buffer (Invitrogen). The cells are pelleted by centrifugation (167 g, 5 min). The cell pellet is incubated in hypotonic buffer (15 mM Tris-OH, 2 mM MgCl2, 0.3 mM EDTA, 1 mM EGTA, 1× Complete™ tablet) at 4° C. for 30 min. At 4° C. cells are homogenized using a Polytron® (IKA Ultra Turrax T25) for 5 bursts of 1 second. The homogenate is centrifuged (Beckman Optima™ TL Ultracentrifuge, 48000 g, 30 min at 4° C.). The supernatant is discarded and the membrane pellet resuspended in homogenisation buffer (75 mM Tris-OH, 12.5 mM MgCl2, 0.3 mM EDTA, 1 mM EGTA, 250 mM Sucrose, 1× Complete™ tablet. Membrane preparations are aliquoted and stored at […]. The protein content is estimated using Bradford Protein Assay Dye (Bio Rad).
The binding of [^3H]-PGD2 (157 Ci/mmol) to CHO.K1-CRTh2 membranes is determined in the absence (total binding) and presence (non-specific binding) of unlabelled PGD2 (1 μM). Subtraction of the cpm (counts per minute) of [^3H]-PGD2 binding in presence of excess unlabelled PGD2 from that observed in the absence of excess unlabelled PGD2 is defined as specific binding. Active CRTh2 modulators are able to compete with [^3H]-PGD2 for binding to the CRTh2 receptor and are identified in a decrease in the number of cpm bound. […]
The plates are incubated at room temperature on a shaker for 1 hour, and then harvested (Tomtec Harvester 9600) onto GF/C filter plates using wash buffer (10 mM HEPES-KOH, pH 7.4). […] Plates are then counted using a Packard Top Count instrument, Plates are then read on the Packard Topcount with the 3H Scintillation program (1 min per well).
Ki (dissocation constant for the inhibition) values for the CRTh2 modulators are reported. Ki values are determined using Sigma Plot™ software, using the Cheng-Prussoff equation. […]

The target of assay [1] is T2, CRTh2 receptor in CHO.K1-CRTh2 cells (Homo sapiens, UniProt Q9Y5Y4).
T2 construct: expressed in transfected cells; host or cells: CHO.K1-CRTh2 cells (whole cells)
T2 sequence (Q9Y5Y4 1-395): T1 sequence (Q9Y5Y4 1-395)
Description: CRTH2 cAMP functional assay. Format: cell-based. The conditions noted are these: inhibition of PGD2-mediated attenuation of forskolin-induced cAMP accumulation in CHO.K1-CRTh2 cells. As to the method:
Ki (dissocation constant for the inhibition) values for the CRTh2 modulators are reported. Ki values are determined using Sigma Plot™ software, using the Cheng-Prussoff equation. Ki=IC50/1+[S]/Kd where S is the concentration of radioligand and Kd is the dissociation constant. CRTH2 cAMP Functional Assay Protocol
This assay is conducted in CHO.K1-CRTh2 cells. cAMP is generated in the cell by stimulating cells with 5 μM forskolin, an adenylate cyclase activator. PGD2 is added to activate the CRTh2 receptor which results in the attenuation of the forskolin-induced cAMP accumulation. Potential CRTh2 antagonists are tested for their ability to inhibit the PGD2-mediated attenuation of the forskolin-induced cAMP accumulation in CHO.K1-CRTh2 cells.
For each concentration value on the dose-response curve, test compounds are prepared in assay stimulation buffer (HBSS, 5 mM HEPES, 10 μM IBMX±0.1% human serum albumin) containing DMSO (3% vol/vol) and 5 μL/well is added to an assay plate (384 well white optiplate).
CHO.K1-CRTh2 cultured in tissue culture flasks are washed with PBS and harvested with dissociation buffer. Cells are washed with PBS and resuspended in stimulation buffer to a concentration of 0.4×10^6/mL and added to the assay plate (10 μL/well).
The assay plate is incubated at room temperature on a shaker for 15 minutes.
A mix of agonist (10 nM Prostaglandin D2) and 5 μM forskolin is prepared in assay stimulation buffer and added to the assay plate (5 μL/well).
In addition, a cAMP standard is serially diluted in assay stimulation buffer and added to separate empty wells on the assay plate (20 μL/well). The cAMP standard allows for the quantification of cAMP generated in CHO.K1-CRTH2 cells.
The assay plate is incubated at room temperature on a shaker for 60 minutes. […]
The assay plate is sealed with Topseal-S™ and incubated in the dark at room temperature on a shaker for 45 minutes. The plate is then counted using a Packard Fusion™ instrument. […]

For the compound `Cc1c(CC(=O)O)c2cc(F)ccc2n1Cc1ccc(S(C)(=O)=O)cc1C(F)(F)F` [Example 2, [5-fluoro-(4-methanesulfonyl-2-trifluoromethyl-benzyl)-2-methyl-1H-indol-3-yl]-acetic acid], the affinity on human CRTh2 corresponds to a Ki of 8 nM. It took 73 nM to reach half-maximal inhibition in assay [1] (IC50).
With `Cc1c(CC(=O)O)c2cc(F)ccc2n1Cc1ccc(S(=O)(=O)N(C)C2CCCCC2)cc1` [Example 4, {1-[4-(Cyclohexyl-methyl-sulfamoyl)-benzyl]-5-fluoro-2-methyl-1H-indol-3-yl}-acetic acid], the affinity at human CRTh2 corresponds to a Ki of 52 nM. This compound also yielded an IC50 in assay [1] of 33 nM.
On the same counts, the results for `Cc1c(CC(=O)O)c2cc(F)ccc2n1Cc1ccc(S(=O)(=O)N2CCCC2)cc1` [Example 5, {5-Fluoro-2-methyl-1-[4-(pyrrolidine-1-sulfonyl)-benzyl]-1H-indol-3-yl}-acetic acid] are 36 nM and 99 nM.
